US8188135B2, “Compounds as cannabinoid receptor ligands” (priority 2008, dated 2012)
Values joined by “and” are separate entries in the source; they are usually repeats but may differ in a detail not shown here. Identical values can stand only once. Like-named read-outs stand apart in the source and are kept apart here.

Key:
rat CB2 [1] = target: T1, rat CB2 (Rattus norvegicus, UniProt Q9QZN9); test: rat CB2 cyclase functional assay (HitHunter cAMP); type: cell-based; design: expressed in transfected cells; host or cells: HEK; conditions: rat CB2 cyclase (EC50, nM), HEK cells, forskolin 18 μM
T1 sequence (Q9QZN9 1-360): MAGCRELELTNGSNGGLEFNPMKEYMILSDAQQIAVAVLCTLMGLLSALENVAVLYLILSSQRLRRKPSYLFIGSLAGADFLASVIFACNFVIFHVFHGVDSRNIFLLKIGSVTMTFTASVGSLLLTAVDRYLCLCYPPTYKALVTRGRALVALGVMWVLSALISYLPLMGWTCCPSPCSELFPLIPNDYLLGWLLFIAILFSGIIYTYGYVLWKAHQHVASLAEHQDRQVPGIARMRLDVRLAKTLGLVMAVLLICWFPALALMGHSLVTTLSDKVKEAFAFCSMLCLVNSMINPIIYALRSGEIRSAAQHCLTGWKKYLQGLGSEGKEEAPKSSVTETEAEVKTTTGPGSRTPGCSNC
Protocol: (§1) The cyclase functional assays were performed using the HitHunter™ cAMP assay kit from DiscoveRx (Fremont, Calif.) according to vendor's protocol. Briefly, HEK cells expressing CB2 or CB1 receptors (rat or human) were detached using cell dissociation buffer (Invitrogen, Carlsbad, Calif.), dispersed and placed in suspension at 10,000 cells per well in 96 well plates prior to the assay. Cell suspensions were incubated at 37° C. for 20 min with variable concentrations of test ligands and or 10 μM CP 55,940-positive control in the presence of a fixed concentration of forskolin (18 μM for rat CB2 and 37 μM for rat CB1) in Dulbescco's phosphate-buffered saline (Invitrogen, Carlsbad, Calif.) supplemented with bovine serum albumin (0.01% final concentration). The reactions were terminated by the addition of lysis buffer and the luminescence was detected following the procedure according to the manufacturer's instructions. EC50 values were calculated using sigmoidal dose-response curve fitting from Prism (GraphPad).

human CB2 receptors = target: T2, human CB2 receptors (Homo sapiens, UniProt P34972); test: human CB2 radioligand binding assay ([3H]CP 55,940 competition); conditions: HEK293 membranes, 0.5 nM [3H]CP 55,940
T2 construct: expressed in transfected cells; host or cells: HEK293
T2 sequence (P34972 whole entry): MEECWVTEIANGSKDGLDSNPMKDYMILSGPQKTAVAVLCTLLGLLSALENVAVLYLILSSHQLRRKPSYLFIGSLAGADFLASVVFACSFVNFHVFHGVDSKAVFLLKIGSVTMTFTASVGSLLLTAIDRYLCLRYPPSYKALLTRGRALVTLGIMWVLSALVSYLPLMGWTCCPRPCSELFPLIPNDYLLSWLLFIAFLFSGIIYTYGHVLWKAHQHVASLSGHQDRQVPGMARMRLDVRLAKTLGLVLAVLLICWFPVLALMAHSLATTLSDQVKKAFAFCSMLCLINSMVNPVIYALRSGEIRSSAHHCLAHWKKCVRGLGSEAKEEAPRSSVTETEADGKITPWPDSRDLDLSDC
In short: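 Membranes from HEK293 cells stably expressing human CB2 (5 μg protein/well) competed against 0.5 nM [3H]CP 55,940 with five concentrations of test ligand (0.01 nM to 10 μM), pH 7.4 Tris buffer with BSA, 90 min at 30 °C. Filtration and scintillation counting; nonspecific binding with 10 μM unlabeled CP 55,940.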

Rat CB1 = target: T3, Rat CB1 (Rattus norvegicus, UniProt P20272); test: rat CB1 cyclase functional assay (HitHunter cAMP); type: cell-based; conditions: HEK cells, forskolin 37 μM
T3 construct: expressed in transfected cells; host or cells: HEK
T3 sequence (P20272 whole entry): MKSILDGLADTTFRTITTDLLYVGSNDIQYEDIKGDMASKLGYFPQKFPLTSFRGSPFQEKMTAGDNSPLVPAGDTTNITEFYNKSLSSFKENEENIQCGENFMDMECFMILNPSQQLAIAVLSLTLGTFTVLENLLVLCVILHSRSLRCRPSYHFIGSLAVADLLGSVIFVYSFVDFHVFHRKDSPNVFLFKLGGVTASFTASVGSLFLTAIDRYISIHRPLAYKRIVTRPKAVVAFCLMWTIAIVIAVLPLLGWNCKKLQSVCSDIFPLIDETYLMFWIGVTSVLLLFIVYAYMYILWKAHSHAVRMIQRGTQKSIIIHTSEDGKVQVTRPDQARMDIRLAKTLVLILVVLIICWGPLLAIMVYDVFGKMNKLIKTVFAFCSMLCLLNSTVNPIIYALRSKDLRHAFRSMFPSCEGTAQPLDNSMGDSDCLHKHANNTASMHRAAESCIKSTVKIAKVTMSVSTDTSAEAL
Protocol: as §1

rat CB2 [2] = target: T1, rat CB2; test: rat CB2 radioligand binding assay ([3H]CP 55,940 competition); design: expressed in transfected cells; host or cells: HEK293; conditions: HEK293 membranes, 0.5 nM [3H]CP 55,940
In short: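 Membranes (20 μg protein/well) from HEK293 cells stably expressing the receptor were incubated 45 min at 30 °C with 0.5 nM [3H]CP 55,940 and five concentrations of test compound (0.01 nM–10 μM) in Tris/EDTA/MgCl2/BSA buffer, pH 7.4. Bound ligand was measured by GF/C filtration and scintillation counting; 10 μM CP 55,940 defined nonspecific binding.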

[3] = pharmacokinetic studies in rats; conditions: male, Sprague-Dawley, rat; for clearance / half-life: iv; for bioavailability: po
Protocol: Male Sprague-Dawley rats, weighing 250-400 g, were obtained from Charles Rivers Laboratories. Pharmacokinetic studies were conducted in three groups of rats; each group contained three animals. All groups were dosed with a solution formulation. The first group of three rats received an intravenous dose, administered under isoflurane anesthetic. The second group received an intraperitoneal dose and the third group received an oral dose, administered by gavage. Sequential blood samples were obtained from a tail vein of each animal for 8-24 hours after dosing. Plasma was separated by centrifugation and stored frozen until analysis.
Half life […] and plasma clearance values are based on intravenous administration (3 micromole/kg).
Half life (t1/2) and plasma clearance values are based on intravenous administration (3 micromole/kg).

[4] = read-out: Rat CB1 cyclase (EC50)

SMILES	Ki (human CB2 receptors; human CB2 (Ki, nM))	Ki (rat CB2 [2]; rat CB2 (Ki, nM))	clearance ([3]; in vivo, 3 micromole/kg) [mL/min/kg]	half-life ([3]; in vivo, 3 micromole/kg) [h]	bioavailability ([3]; in vivo, 10 micromole/kg) [%]	EC50 (Rat CB1; [4]) [nM]	further results
CC1CCC(COc2ccc(C(F)(F)F)cc2C(=O)N=c2cc(C(C)(C)C)n(C)n2CC2CCCO2)O1 (single isomer, unassigned) [Example 36]	74 nM	108 nM	–	–	–	–	EC50 (rat CB2 [1]): 2.7 nM; EC50 (Rat CB1; Rat CB1 cyclase (EC50, nM)): 8410 nM
Cn1c(C(C)(C)C)c/c(=N\C(=O)c2cccc(C(F)(F)F)c2F)n1CC1CC1 [A, reference compound]	–	–	10	0.7	26	–	–
CCCCn1/c(=N/C(=O)c2cc(Cl)ccc2OC)cc(C(C)(C)C)n1C [B, reference compound]	–	–	40	1.7	11	–	–
CC(C)Cn1/c(=N/C(=O)c2cccc(C(F)(F)F)c2F)cc(C(C)(C)C)n1C [C, reference compound]	–	–	26.7	0.8	45	–	–
CCCCn1/c(=N/C(=O)c2cc(C(F)(F)F)ccc2Cl)cc(C(C)(C)C)n1C [D, reference compound]	–	–	56.7	0.3	10	–	–
CCCCn1/c(=N/C(=O)c2cc(C(F)(F)F)ccc2OC)cc(C(C)(C)C)n1C [E, reference compound]	–	–	33.3	2.9	9	–	–
CN1CCC[C@H]1COc1ccc(C(F)(F)F)cc1C(=O)/N=c1\sc(C(C)(C)C)nn1C[C@H]1CCCO1 [Example 69, N-[(2Z)-5-tert-butyl-3-[(2R)-tetrahydrofuran-2-ylmethyl]-1,3,4-thiadiazol-2(3 H)-ylidene]-2-{[(2S)-1-methylpyrrolidin-2-yl]methoxy}-5-(trifluoromethyl)benzamide]	10 nM and 14 nM	19 nM and 5 nM	–	–	–	–	EC50 (rat CB2 [1]): 0.93 nM and 0.16 nM
Cn1c(C(C)(C)C)c/c(=N\C(=O)c2cc(C(F)(F)F)ccc2OCC(C)(C)O)n1CC1CC1 [Example 71, N-[(3E)-5-tert-butyl-2-(cyclopropylmethyl)-1-methyl-1,2-dihydro-3H-pyrazol-3-ylidene]-2-(2-hydroxy-2-methylpropoxy)-5-(trifluoromethyl)benzamide]	38 nM	8.5 nM	–	4.7	–	–	EC50 (Rat CB1; Rat CB1 cyclase (EC50, nM)): 4280 nM; clearance [3]: 5 mL/min/kg; bioavailability [3]: 46%
CCCCn1cc(C(C)(C)C)o/c1=N\C(=O)c1cc(C(F)(F)F)ccc1OC[C@@H]1CCCN1C [Example 76, N-[(2Z)-3-butyl-5-tert-butyl-1,3-oxazol-2(3H)-ylidene]-2-{[(2S)-1-methylpyrrolidin-2-yl]methoxy}-5-(trifluoromethyl)benzamide]	–	–	–	–	–	2030	Ki (human CB2 receptors; read-out: human CB2 (Ki)): 176 nM; Ki (rat CB2 [2]; read-out: rat CB2 (Ki)): 243 nM
C[C@@H](O)COc1ccc(C(F)(F)F)cc1C(=O)/N=c1\cc(C(C)(C)C)n(C)n1C[C@H]1CCCO1 [Example 91, N-{(3E)-5-tert-butyl-1-methyl-2-[(2R)-tetrahydrofuran-2-ylmethyl]-1,2-dihydro-3 H-pyrazol-3-ylidene}-2-{[(2R)-2-hydroxypropyl]oxy}-5-(trifluoromethyl)benzamide]	38 nM	18 nM	–	2.5	–	> 27000	clearance [3]: 31.7 mL/min/kg; bioavailability [3]: 33%
CCCCCn1/c(=N/C(=O)c2cc(C(F)(F)F)ccc2OCC(C)(C)O)cc(C(C)(C)C)n1C [Example 99, N-[(3E)-5-tert-butyl-1-methyl-2-pentyl-1,2-dihydro-3H-pyrazol-3-ylidene]-2-(2-hydroxy-2-methylpropoxy)-5-(trifluoromethyl)benzamide]	9.2 nM	4.4 nM	–	5.6	–	–	clearance [3]: 18.3 mL/min/kg; bioavailability [3]: 37%
Cn1c(C(C)(C)C)c/c(=N\C(=O)c2cc(C#N)ccc2OCC(C)(C)O)n1CC1CCC1 [Example 113, N-[(3E)-5-tert-butyl-2-(cyclobutylmethyl)-1-methyl-1,2-dihydro-3H-pyrazol-3-ylidene]-5-cyano-2-(2-hydroxy-2-methylpropoxy)benzamide]	54 nM	28 nM	–	3.4	–	> 27000	clearance [3]: 20 mL/min/kg; bioavailability [3]: 100%
CCCCCn1/c(=N/C(=O)c2cc(C#N)ccc2OCC(C)(C)O)cc(C(C)(C)C)n1C [Example 115, N-[(3E)-5-tert-butyl-1-methyl-2-pentyl-1,2-dihydro-3H-pyrazol-3-ylidene]-5-cyano-2-(2-hydroxy-2-methylpropoxy)benzamide]	81 nM	17 nM	–	0.6	–	> 27000	clearance [3]: 30 mL/min/kg; bioavailability [3]: 7%
Cn1c(C(C)(C)C)c/c(=N\C(=O)c2cc(C(F)(F)F)ccc2OC[C@@H]2CCC(=O)N2)n1CC1CCC1 [Example 120, N-[(3E)-5-tert-butyl-2-(cyclobutylmethyl)-1-methyl-1,2-dihydro-3H-pyrazol-3-ylidene]-2-{[(2S)-5-oxopyrrolidin-2-yl]methoxy}-5-(trifluoromethyl)benzamide]	–	61 nM	–	–	–	> 27000	Ki (human CB2 receptors; read-out: human CB2 (Ki)): 116 nM
Cn1c(C(C)(C)C)c/c(=N\C(=O)c2cc([N+](=O)[O-])ccc2OCC(C)(C)O)n1C[C@H]1CCCO1 [Example 121, N-{(3E)-5-tert-butyl-1-methyl-2-[(2R)-tetrahydrofuran-2-ylmethyl]-1,2-dihydro-3H-pyrazol-3-ylidene}-2-(2-hydroxy-2-methylpropoxy)-5-nitrobenzamide]	13 nM	7.7 nM	–	–	–	4710	–
Cn1c(C(C)(C)C)c/c(=N\C(=O)c2cc(C(F)(F)F)ccc2OCC(C)(C)C(=O)O)n1C[C@H]1CCCO1 [Example 124, 3-[2-[({(3E)-5-tert-butyl-1-methyl-2-[(2R)-tetrahydrofuran-2-ylmethyl]-1,2-dihydro-3H-pyrazol-3-ylidene}amino)carbonyl]-4-(trifluoromethyl)phenoxy]-2,2-dimethylpropanoic acid]	–	43 nM	–	–	–	> 27000	Ki (human CB2 receptors; read-out: human CB2 (Ki)): 185 nM
CCCCn1/c(=N/C(=O)c2cc([N+](=O)[O-])ccc2OCC(C)(C)O)cc(C(C)(C)C)n1C [Example 138, N-[(3E)-2-butyl-5-tert-butyl-1-methyl-1,2-dihydro-3H-pyrazol-3-ylidene]-2-(2-hydroxy-2-methylpropoxy)-5-nitrobenzamide]	1.6 nM	19 nM	–	–	–	–	–
CCCCn1/c(=N/C(=O)c2cc(C(F)(F)F)ccc2SCC(N)=O)cc(C(C)(C)C)n1C [Example 140, 2-[(2-amino-2-oxoethyl)thio]-N-[(3E)-2-butyl-5-tert-butyl-1-methyl-1,2-dihydro-3H-pyrazol-3-ylidene]-5-(trifluoromethyl)benzamide]	136 nM	11 nM	–	–	–	–	–
COc1ccc(C(F)(F)F)cc1C(=O)/N=c1\cc(C(C)(C)C)n(C)n1CC1CC1 [F, reference compound]	–	–	63.3	2.1	11	–	–
CCCCn1/c(=N/C(=O)c2cc(C(F)(F)F)ccc2OCC(C)(C)OC)cc(C(C)(C)C)n1C [G, reference compound]	–	–	45	1.5	5	–	–
